Structures can show the parent of a compound that is named as a salt.
Columns and labels:
[1] = tested on: Chinese hamster ovary cells; experiment: standard mitotic inhibition test employing Chinese hamster ovary cells; format: cell-based
Source text: The compounds of this invention are antimitotic compounds which adversely affects the growth of malignant cells. This activity is manifested in a standard mitotic inhibition test employing Chinese hamster ovary cells.

P388/V leukemia = experiment: transplanted tumors in mice: P388/V leukemia; format: in vivo; conditions: dose and regimen not given, intraperitoneal
Protocol: (§1) The bases of this invention and their salts preparable by the processes disclosed herein are active in vivo against transplanted tumors in mice.
(§2) The following table--Table 1--gives the results of experiments in which mice bearing the susceptible transplanted tumor were treated with a compound of this invention. In the table, column 1 gives the name of the compound; column 2, the tumor used; column 3 the dosage; and column 4, the percent inhibition of tumor growth (I) or prolongation of life (PL). The following dosage regimens were employed: every day for 7 or 10 days after tumor inoculation; or every fourth day (three doses) starting at the third day after tumor inoculation.

B16 melanoma = experiment: transplanted tumors in mice: B16 melanoma; format: in vivo; conditions: intraperitoneal; for percent Prolongation of life (PL): * = 1 or more indefinite survivors
Protocol: as §1, §2

755 adenocarcinoma = experiment: transplanted tumors in mice: 755 adenocarcinoma; format: in vivo; conditions: intraperitoneal
Protocol: as §1, §2

P1534(J) = experiment: transplanted tumors in mice: P1534(J) leukemia; format: in vivo; conditions: intraperitoneal
Protocol: as §1
as §2, with “The following dosage regimens were employed: every day for 7 or 10 days after tumor inoculation; or every fourth day (three doses) starting at the third day after tumor inoculation.” left out

tumor = conditions: background, U.S. Pat. No. 4,166,810 and Conrad et al.; cited from earlier work

Compound: 4'-Acetylamino VLB
- mitotic index ([1]; 2.0×10^-2 mcg/ml): + (15-25% inhibition)

Compound: CCC1(NC(C)=O)C[C@@H]2CN(CCc3c([nH]c4ccccc34)[C@@](C(=O)OC)(c3cc4c(cc3OC)N(C)[C@H]3[C@@](O)(C(=O)OC)[C@H](OC(C)=O)[C@]5(CC)C=CCN6CC[C@]43[C@@H]65)C2)C1 (some centres unmarked) [4'-acetylamino VLB sulfate]
- indefinite survivors (P388/V leukemia): * (1 or more indefinite survivors)
- percent Prolongation of life (PL) (P388/V leukemia; * = 1 or more indefinite survivors): 20%
- indefinite survivors (B16 melanoma; 3 days, 1.5 mg/kg): * (1 or more indefinite survivors)
- percent Prolongation of life (PL) (B16 melanoma; 3 days, 1.5 mg/kg): 120%
- indefinite survivors (B16 melanoma; 3 days, 3 mg/kg): * (1 or more indefinite survivors)
- percent Prolongation of life (PL) (B16 melanoma; 3 days, 3 mg/kg): 74-201%
- indefinite survivors (B16 melanoma; .75 mg/kg): * (1 or more indefinite survivors)
- percent Prolongation of life (PL) (B16 melanoma; .75 mg/kg): 119%
- Percent Inhibition (I) of tumor growth (755 adenocarcinoma; 10 days, 1 mg/kg): 18%
- Percent Inhibition (I) of tumor growth (755 adenocarcinoma; 10 days, .5 mg/kg): 30%
- Percent Inhibition (I) of tumor growth (755 adenocarcinoma; 10 days, .75 mg/kg): 29%
- Percent Inhibition (I) of tumor growth (755 adenocarcinoma; 11 days, 3 mg/kg): 57%
- Percent Inhibition (I) or Prolongation (PL) column: toxicity (755 adenocarcinoma; 11 days, 6 mg/kg): Toxic
- Percent Inhibition (I) of tumor growth (755 adenocarcinoma; 11 days, .5 mg/kg): 33%
- Percent Inhibition (I) of tumor growth (P1534(J); every third day, 5.0 mg/kg): 42%
- Percent Inhibition (I) of tumor growth (P1534(J); every third day, 7.5 mg/kg): 71%

Compound: CCC1(NC(C)=O)C[C@@H]2CN(CCc3c([nH]c4ccccc34)[C@@](C(=O)OC)(c3cc4c(cc3OC)N(C)[C@H]3[C@@](O)(C(=O)OC)[C@H](O)[C@]5(CC)C=CCN6CC[C@]43[C@@H]65)C2)C1 (some centres unmarked) [4'-acetylamino-4-desacetyl VLB]
- Percent Inhibition (I) of tumor growth (B16 melanoma; 10 1.0 (regimen and dose mg/kg)): 58%
- Percent Inhibition (I) of tumor growth (B16 melanoma; .5 mg/kg): 23%
- Percent Inhibition (I) of tumor growth (B16 melanoma; .75 mg/kg): 44%
- Percent Inhibition (I) of tumor growth (P1534(J); 9.5-1.0 mg/kg): 2-11%
- inhibition at 2 µg/mL ([1]; Cricetulus griseus, CHO, read-out: mitotic index): 25 to 50%

Compound: CC[C@]1(O)C[C@@H]2CN(CCc3c([nH]c4ccccc34)[C@@](C(=O)OC)(c3cc4c(cc3OC)N(C)[C@H]3[C@@](O)(C(N)=O)[C@H](O)[C@]5(CC)C=CCN6CC[C@]43[C@@H]65)C2)C1 [vindesine, 4-desacetyl VLB C-3 carboxamide]
- anti-tumor activity (tumor): very active
